From a melting point compilation (Tetko et al.; mined from patent text by program, amines drawn as free bases though some values may be those of a salt)

| melting point [°C] | SMILES |
| --- | --- |
| 192 to 193 | Cc1nc(-c2ncn3c2c(C)nc2ccccc23)no1 |
| 230 to 234 | CC(=O)NNc1ccnc2c(NC(=O)c3c(Cl)cccc3Cl)ccc(C)c12 |
| 167 to 168 | O=c1ccn(-c2cccc(C(F)(F)F)c2)nc1-c1ncnn1-c1ccccc1 |
| 141 to 142 | CCOC(=O)CCCOc1cccc2cc(/C(C)=C/C(=O)Nc3ccc(OC)cc3)oc12 |
| 79.5 to 81.5 | CN1CC(CCN2CCN(c3ccccc3Cl)CC2)OC1=O (stereo not drawn) |
| 190 to 191 | CCCCc1nc(C(F)(F)C(F)(F)F)c(CO)n1Cc1ccc(-c2ccccc2C(=O)O)cc1 |
| 181 to 192 | NC(Cc1nc2cc(Cl)ccc2nc1CP(=O)(O)O)C(=O)O (stereo not drawn) |
| 99 to 101 | CN(C(=O)c1cccc(Cn2cnc3ccccc32)c1)C1CCCCC1 |
| 146 to 148 | CCCc1c(COc2ccc(C(=O)c3cccc(C#N)c3)cc2)ccc(C(C)=O)c1O |
| 128 to 132 | O=C1COc2cc(NC(=O)C(=O)N3CCC(CCc4ccccc4)CC3)ccc2N1 |
| 173 | COC(=O)[C@@H](N)Cc1cc(I)c(Oc2ccc(O)cc2)c(I)c1 |
| 143 to 145 | CC(C)(C)OC(=O)NCCN1C(=O)c2ccccc2C1=O |
| 186 to 187 | COC(=O)C1(C)COC(c2nc(-c3ccc(F)cc3)c(-c3ccnc(S(C)(=O)=O)n3)[nH]2)OC1 (stereo not drawn) |
| 269 to 271 | NS(=O)(=O)c1ccc(NC(=O)Nc2ccc(Br)cc2)cc1 |
| > 250 | COc1cccc(OC)c1CNC(=O)c1ccc2c(c1)C(=NNc1ccc(S(N)(=O)=O)cc1)C(=O)N2 |
| 99 to 101 | C[C@H](O)[C@H](CNC(=O)c1ccccc1)C(=O)O |
| 243 to 244 | CNc1nc(-c2ccc(F)cc2)c(-c2ccc(S(C)(=O)=O)cc2)s1 |
| 174 to 176 | O=C1N(Cc2ccc(F)cn2)c2ccccc2C12COc1cc3c(cc12)OCCO3 (stereo not drawn) |
| 96 to 101 | CCCCc1nc2c(C)cccc2n1Cc1cc(C(=O)OC)no1 |
| 181 to 183 | COc1cc(Cc2cnc(NC(=O)Cc3ccccc3)nc2N)cc(OC)c1OC |
| 201 to 202 | O=C(NCC(C(=O)Nc1n[nH]c(=S)s1)c1ccccc1)OCc1ccccc1 (stereo not drawn) |
| 298 to 299 | CCCn1c(=O)n2c(C)nnc2c2[nH]cnc21 |
| 131 to 133 | CCN(CC)CCCC1CCN(CCNC(=O)N2c3ccccc3NC(=O)c3csc(C)c32)CC1 |

| melting point [°C] | SMILES |
| --- | --- |
| 314 to 316 | O=c1c2nc[nH]c2nc2n1CCN2Cc1ccc(Cl)cc1 |
| 205 to 206 | Nc1cc2c(cc1Oc1ccccc1)C(=O)OC2 |
| 159 to 160 | Cn1ccc2cccc(C(=O)N3CCN(c4ncccn4)CC3)c21 |
| 162 to 163 | Cc1c(Cc2cccc(C(F)(F)F)c2)oc2c(-c3cccc(C(=O)NCCS(C)(=O)=O)c3)cccc12 |
| 93 to 94 | COC(=O)COc1ccc([N+](=O)[O-])c(F)c1 |
| 168 to 170 | C[C@]12CCC(=O)N[C@@H]1CCc1cc(Sc3cnc4ccccc4c3)ccc12 |
| 241 to 242 | Nc1ccccc1NC(=O)c1ccc(CNC(=O)c2[nH]c(-c3ccc(O)cc3)cc2-c2ccccc2)cc1 |
| > 260 | Oc1ncnc2[nH]c(-c3ccncc3)cc12 |
| 182 | CCCOC(=O)C1=C(N)NC(C)=C(C(=O)OCC)C1c1ccccc1C#N (stereo not drawn) |
| 84 to 86 | CCOCc1cc2ccccc2oc1=Nc1ccc(F)cc1 |
| 153 to 155 | CCC(=O)Nc1nc(CC(=O)N(C)c2ccc(Cl)cc2)cs1 |
| 54 to 59 | CCOC1CC2(C)C(CCC3C4CCCC4(C)CC(N(C)C)C32)CC1O (stereo not drawn) |
| 137 to 142 | Cc1nc(N2CCc3ccccc3CC2)c(C#N)c(=O)n1N |
| 88 to 90 | CCCCCCCCCCCCC(C)COc1ccc(C(=O)O)o1 (stereo not drawn) |
| 140 | O=C(NCc1nc2cnc3cc(Br)ccc3c2n1CC1CCOCC1)C1CC1 |
| 146 to 147 | COC(=O)Cc1cccc(OC)c1OCCCc1cn(-c2ccc(C(=O)O)nn2)nc1C(C)C |
| 163 to 164 | Cc1noc(-c2sc(N3CCN(Cc4ccc(C(F)(F)F)cc4)C3=O)nc2C)n1 |
| 163 to 165 | CCCCN(CC)c1nc(C)nc2c1c(C)cn2-c1c(C)cc(CF)cc1C |
| 290 to 294 | CC1(O)CN(c2c(F)cc3c(=O)c(C(=O)O)cn(C4CC4)c3c2F)C1 |
| 144 to 145 | CN(C)S(=O)(=O)C(Br)(Br)S(=O)(=O)c1ccccc1 |
| 122 | COc1ccc(CCN2CCC(Cc3nc4ncnc(O)c4n3Cc3ccc(F)cc3)CC2)cc1 |
| 174 to 176 | O=C(O)c1ccc([N+](=O)[O-])cc1-c1ccccc1 |
| 240 | CCOC(=O)Cn1cc(C(=O)Nc2ccc(OCC(C)(C)C)c(C#N)c2)c(C)n1 |

| melting point [°C] | SMILES |
| --- | --- |
| 135 | NS(=O)(=O)c1cc(C(=O)OCC(=O)NCCO[N+](=O)[O-])c(NCc2ccco2)cc1Cl |
| 158 to 161 | CN1C(=O)N(CCN2C(=O)N(C)C(O)C2O)C(O)C1O (stereo not drawn) |
| 83 to 85 | CN1C(=S)CSC=C1c1ccccc1 |
| 84 to 95 | CC1Oc2ccc([N+](=O)[O-])cc2O1 (stereo not drawn) |
| 260 | CCn1c(N)c(-c2ncc[nH]2)c(=O)c2ccc(C#CC(O)(c3ccccc3)C(F)(F)F)nc21 (stereo not drawn) |
| 69 to 71 | BrCc1noc2cc3c(cc12)CCC3 |
| 208 to 209 | CCOP(=O)(Cc1ccc(NC(=O)/C=C/c2cnn(C)c2-c2ccc(F)cc2)cc1)OCC |
| 256 to 258 | COc1ccc(C(=O)C2C(=O)c3cccc(NC(=O)Oc4ccccc4)c3C2=O)cc1 (stereo not drawn) |
| 185 to 187 | COC1=CN=C(COC(c2ccccc2)(c2ccccc2)c2ccccc2)CC1=O |
| 85 to 87 | N#Cc1c(C(F)(F)F)nn(-c2c(Cl)cc(C(F)(F)F)cc2Cl)c1Br |
| 66 | CC(C)(O)C1CCN(Cc2ccccc2)CC1 |
| 128 | CC(C)(C)OC(=O)NNc1ccc(N)cc1 |
| 100 to 102 | CCCCN=C(N(CCCC)CCCC)N(CCCC)CCCC |
| 139 to 141 | COc1cc(I)c(C=O)cc1OC |
| 107 to 110 | CC(C)(C)OC(=O)N1CC(CC(=O)CC(=O)OCc2ccc([N+](=O)[O-])cc2)C2NC(=O)C21 (stereo not drawn) |
| 194 to 196 | COc1ccc(-c2nc(N3CCOCC3)c3c(C)c(C#N)sc3n2)cc1OC |
| 90 to 93 | CC(C)OC(=NC(=O)c1ccc(F)cc1)N1Cc2ccccc2-c2ccccc2C1 |
| 33 to 35 | CCOC(=O)c1ccc(Cl)nc1OCC |
| 298 | O=C(O)c1cc(=O)c2c(I)cc(Cl)cc2[nH]1 |
| 88 to 90 | CC(C)(C)OC(=O)N1[C@@H](Cc2cccc([Si](C)(C)C)c2)C(=O)O[C@H](c2ccccc2)[C@@H]1c1ccccc1 |
| 183 | CCN1C(=O)CCCc2c1ccc(Nc1ncc(Cl)c(Nc3ccccc3S(=O)(=O)N(C)C)n1)c2OC |
| 46.5 to 47 | COC(=O)c1ncoc1C |
| 167 to 168 | COc1cc(-n2cccn2)ccc1-n1cc(OC)c(=O)c(-c2ccnn2-c2cccc(Cl)c2)n1 |

| melting point [°C] | SMILES |
| --- | --- |
| 179 to 182 | O=c1c2ccc(O)cc2oc2c([N+](=O)[O-])ccc(Cl)c12 |
| 116 to 118 | COc1ccccc1N1CCN(CC(O)COc2ccccc2C=C=O)CC1 (stereo not drawn) |
| 127 to 128 | CC(=O)Nc1cccc(C(=O)N[C@@H](C)C(=O)N2CCC[C@H]2C(=O)O)c1C(=O)O |
| 115 to 117 | Cc1c(Br)c2c(c(C)c1NC(=O)OC(C)(C)C)CC(C)(C)O2 |
| 69 to 70 | CCCCOCc1cc2ccccc2oc1=O |
| 161 | C#Cc1cccc(-n2ncc3c(NCc4ccc5c(c4)OCCO5)ncnc32)c1 |
| 225 to 228 | Cc1ccc(-n2c(-c3sc(Nc4ccccc4)nc3-c3ccccc3)nc3ccccc3c2=O)cc1 |
| 115 | OCCn1cc(-c2ccccc2)c(OCc2ccccc2)n1 |
| 115 to 118 | Cc1ncc(NC(=O)OCc2ccccc2)c(=O)n1CC(=O)NC(Cc1ccccc1)C(=O)C(F)(F)F (stereo not drawn) |
| 124 | COC(=O)c1scc(C)c1NC(=O)CC12CC3CC(CC(C3)C1)C2 |
| 149 | FCC=Cc1ncn(C(c2ccccc2)(c2ccccc2)c2ccccc2)n1 |
| 253 to 255 | N#CNC(=S)Nc1ccccc1Cl |
| 167 to 168 | O=C(O)CC1CCCc2c1n(Cc1ccc(Cl)cc1)c1ccc(C(F)(F)F)cc21 (stereo not drawn) |
| 212 | CCC1=C(O)C(C(C)=O)C(=O)OC1=O (stereo not drawn) |
| 152 to 153 | Cc1ccccc1NC(=NC#N)NC(NC(=O)Cc1ccc2c(c1)OCO2)C(C)(C)C (stereo not drawn) |
| > 250 | O=C1CCn2nc(-c3ccc(F)cc3)c(-c3ccncc3)c2N1 |
| 69 to 70 | CCOC(=O)c1c(C(F)(F)F)nc(C(F)(F)Cl)c(C(=O)OC)c1N |
| 83 to 86 | COc1cc(C=C(C(C)=O)C(C)=O)cc(OC)c1OC |
| 250 to 260 | O=[N+]([O-])c1ccc(C=Cc2nc(Nc3ccc(O)cc3)c3ccccc3n2)o1 |
| 104 to 106 | CC(c1oc2ccccc2c(=O)c1-c1cccc(F)c1)n1nc(-c2cccc(C(=O)N3CCOCC3)c2)c2c(N)ncnc21 (stereo not drawn) |
| 166 to 170 | OC12CC3CC(C1)C(NC(c1ccccc1)(c1ccccc1)c1ccccc1)C(C3)C2 (stereo not drawn) |
| > 275 | COc1ccc(-n2c(-c3sc(NC(=O)c4ccccc4)nc3-c3ccccc3)nc3ccccc3c2=O)cc1 |

| SMILES | melting point [°C] |
| --- | --- |
| c1ccc(C2(N3CCC(n4c(OC5CCNCC5)nc5ccccc54)CC3)CCCCCC2)cc1 | 114 to 118 |
| CCc1c(C(=O)C(N)=O)c2c(OCC(=O)NOCc3ccccc3)cccc2n1Cc1ccccc1 | 167 to 169 |
| Cc1ccc(C=CC2CCC(c3ccccc3)(N(C)C)CC2)cc1 (stereo not drawn) | 130 to 145 |
| CN(C)C1(c2ccccc2)CCC(CNC(=S)NCCc2c[nH]c3ccccc23)CC1 (stereo not drawn) | 92 to 95 |
| COC(=O)COc1cccc2c(CCSC(c3ccc(O)cc3)c3ccc(O)cc3)c(C)oc12 | 178 to 180 |
| CN(C(=O)CBr)c1cccc(-c2ccnc3c(C(=O)c4ccccc4)cnn23)c1 | 175 to 177 |
| COC12CC(CCOC(=O)c3[nH]c(C)cc3C)CN(C)C1Cc1cn(C)c3cccc2c13 (stereo not drawn) | 152 to 153 |
